According to patent US4661499A, “2-[(substituted)-phenoxymethyl]quinolines” (Merck Frosst Canada, Inc., priority 1985, dated 1987):

Tested on: LTB4 formation
Experiment: Rat Peritoneal Polymorphonuclear (PMN) Leukocyte Assay (leukotriene inhibitor assay)
Format: cell-based
Settings: A-23187 10 μM
Procedure: For example, 2-[4-(1-hydroxyhexylphenoxymethyl)]quinoline (see Example 1) was compared to its 3-(1-hydroxyhexylphenoxymethyl) analog in the PMN (leukotriene inhibitor) assay.
Rats under ether anesthesia are injected (i.p.) with 8 ml of a suspension of sodium cascinate (6 grams in ca. 50 ml water). After 15-24 hr. the rats are sacrificed (CO2) and the cells from the peritoneal cavity are recovered by lavage with 20 ml of buffer (Eagles MEM containing 30 mM HEPES adjusted to pH 7.4 with NaOH). The cells are pelleted (350×g, 5 min.), resuspended in buffer with vigorous shaking, filtered, through lens paper, recentrifuged and finally suspended in buffer at a concentration of […]. A 500 μl aliquot of PMN suspension and test compound are preincubated for 2 minutes at 37° C., followed by the addition of 10 μM A-23187. The suspension is stirred for an additional 4 minutes then bioassayed for […] content by adding an aliquot to a second 500 μl portion of the PMN at 37° C. The LTB4 produced in the first incubation causes aggregation of the second PMN, which is measured as a change in light transmission. The size of the assay aliquot is chosen to give a submaximal transmission change (usually -70%) for the untreated control. The percentage inhibition of LTB4 formation is calculated from the ratio of transmission change in the sample to the transmission change in the compound-free control.

Row | SMILES | % Inhibition of LTB4 formation (0.0016 μg/ml) [%] | % Inhibition of LTB4 formation (0.008 μg/ml) [%] | % Inhibition of LTB4 formation (0.04 μg/ml) [%] | % Inhibition of LTB4 formation (0.2 μg/ml) [%] | % Inhibition of LTB4 formation (1 μg/ml) [%] | % Inhibition of LTB4 formation (5 μg/ml) [%]
1 | CCCCCC(O)c1ccc(OCc2ccc3ccccc3n2)cc1 (centres unmarked) [Example 1] | 15 | 49 | 89 | 100 | 100 | 100
2 | CCCCCC(O)c1cccc(OCc2ccc3ccccc3n2)c1 (centres unmarked) [Example 3-Analog, reference compound] | – | -1 | 39 | 100 | 100 | 100
